Key:
[1] = target: E3 ubiquitin-protein ligase CBL-B (Homo sapiens, UniProt Q13191); assay: Inhibition of N-terminal Avi-tagged human CBL-B (36 to 427 residues) incubated with 60 nM Src kinase for 1.5 hrs followed by incubation with fluorescently labeled UbcH5B-Ub for 1 hr and measured by TR-FRET assay; format: single protein
[2] = Induction of anti-CD3/CD28 antibodies-stimulated human T cell activation at 1 uM assessed fold increase in IL-2 secretion measured by ELISA assay; format: functional, T cell line
[3] = Induction of anti-CD3/CD28 antibodies-stimulated human T cell activation at 0.3 uM assessed fold increase in IL-2 secretion measured by ELISA assay; format: functional, T cell line
[4] = Induction of anti-CD3 antibodies-stimulated human T cell activation at 1 uM assessed fold increase in IL-2 secretion measured by ELISA assay; format: functional, T cell line; note: reference of the scale not given here
[5] = Induction of anti-CD3/CD28 antibodies-stimulated human T cell activation at 1 uM assessed fold increase in CD25 expression measured by ELISA assay; format: functional, T cell line
[6] = Induction of anti-CD3/CD28 antibodies-stimulated human T cell activation at 0.3 uM assessed fold increase in CD25 expression measured by ELISA assay; format: functional, T cell line
[7] = Induction of anti-CD3 antibodies-stimulated human T cell activation at 1 uM assessed fold increase in CD25 expression measured by ELISA assay; format: functional, T cell line; note: reference of the scale not given here

Chain of E3 ubiquitin-protein ligase CBL-B (Q13191 whole entry, the tested form may be a part): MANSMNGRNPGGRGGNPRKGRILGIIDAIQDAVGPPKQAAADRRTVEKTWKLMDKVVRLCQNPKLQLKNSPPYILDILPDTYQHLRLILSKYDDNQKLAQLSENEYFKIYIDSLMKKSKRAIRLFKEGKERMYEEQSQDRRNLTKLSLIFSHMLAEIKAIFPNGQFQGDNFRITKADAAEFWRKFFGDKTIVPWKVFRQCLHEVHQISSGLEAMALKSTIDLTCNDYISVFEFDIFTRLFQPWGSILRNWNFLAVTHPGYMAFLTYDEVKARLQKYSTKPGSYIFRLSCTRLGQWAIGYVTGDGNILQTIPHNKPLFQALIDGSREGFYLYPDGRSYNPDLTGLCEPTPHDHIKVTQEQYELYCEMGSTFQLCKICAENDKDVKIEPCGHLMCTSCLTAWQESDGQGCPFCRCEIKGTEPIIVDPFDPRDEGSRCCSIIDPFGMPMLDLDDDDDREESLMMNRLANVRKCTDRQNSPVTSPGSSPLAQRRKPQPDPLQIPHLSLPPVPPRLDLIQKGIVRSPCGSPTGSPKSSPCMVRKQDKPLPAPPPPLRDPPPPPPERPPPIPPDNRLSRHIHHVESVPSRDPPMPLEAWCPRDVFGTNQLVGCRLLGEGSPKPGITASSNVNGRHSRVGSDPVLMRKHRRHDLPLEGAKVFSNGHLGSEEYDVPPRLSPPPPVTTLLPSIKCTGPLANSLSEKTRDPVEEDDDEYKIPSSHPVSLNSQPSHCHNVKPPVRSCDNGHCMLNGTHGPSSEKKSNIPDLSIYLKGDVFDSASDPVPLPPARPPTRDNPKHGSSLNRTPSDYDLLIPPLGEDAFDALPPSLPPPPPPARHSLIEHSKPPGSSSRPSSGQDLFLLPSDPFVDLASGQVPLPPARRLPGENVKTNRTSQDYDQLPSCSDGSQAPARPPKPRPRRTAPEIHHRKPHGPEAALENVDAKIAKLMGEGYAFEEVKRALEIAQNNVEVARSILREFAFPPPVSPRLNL

| IC50 [1] [nM] | Structure (SMILES) | fold change (FC) [2] | fold change (FC) [3] | fold change (FC) [4] | fold change (FC) [5] | fold change (FC) [6] | fold change (FC) [7] |
| --- | --- | --- | --- | --- | --- | --- | --- |
| < 100 | Cn1cnnc1CC1(c2cccc(N3Cc4c(cc(CN5CCC(C(F)F)CC5)cc4C(F)(F)F)C3=O)c2)COC1 | >=7.5 | 5 | 0.151 | 1.31 | 1.31 | >=1.001 |
| < 100 | Cn1cnnc1CC1(c2cccc(N3Cc4c(cc(CN5CCC6(CC6)C5)cc4C(F)(F)F)C3=O)c2)CCC1 | >=7.5 | >=7.5 | >=0.201 | 1.31 | 1.31 | >=1.001 |
| < 100 | Cn1cnnc1CC1(c2cccc(N3Cc4c(cc(N5CCOCC5)cc4C(F)(F)F)C3=O)c2)COC1 | >=7.5 | 5 | 0.101 | 1.51 | 1.31 | >=1.001 |
| < 100 | CC1CN(c2cc3c(c(C(F)(F)F)c2)CN(c2cccc(C4(Cc5nncn5C)COC4)c2)C3=O)C1 | 2.51 | 1.01 | 0.101 | 1.01 | 1.01 | 0.601 |
| < 100 | CC1CCN(Cc2cc3c(c(C(F)(F)F)c2)CN(c2cccc(C4(Cc5nncn5C)COC4)c2)C3=O)CC1(F)F (stereo unspecified) | >=7.5 | >=7.5 | >=0.201 | 1.31 | 1.31 | >=1.001 |
| < 100 | C[C@@H](c1cc2c(c(C(F)(F)F)c1)CN(c1cccc(C3(Cc4nncn4C)COC3)c1)C2=O)N1CCC2(CC1)CC2 | >=7.5 | >=7.5 | >=0.201 | 1.01 | 1.01 | >=1.001 |
| < 100 | CN1CCC(=O)C(Cc2cc3c(c(C(F)(F)F)c2)CN(c2cccc(C4(Cc5nncn5C)COC4)c2)C3=O)C1 (stereo unspecified) | >=7.5 | >=7.5 | >=0.201 | 1.01 | 1.01 | >=1.001 |
| < 100 | Cn1cnnc1CC1(c2cccc(N3Cc4c(cc(CN5Cc6cccc(F)c6C5)cc4C(F)(F)F)C3=O)c2)COC1 | >=7.5 | 2.51 | >=0.201 | 1.31 | 1.31 | >=1.001 |
| < 100 | COc1cccc2c1CN(Cc1cc3c(c(C(F)(F)F)c1)CN(c1cccc(C4(Cc5nncn5C)COC4)c1)C3=O)C2 | >=7.5 | 5 | >=0.201 | 1.51 | 1.51 | >=1.001 |
| < 100 | COC1CCN(Cc2cc3c(c(C(F)(F)F)c2)CN(c2cccc(C4(Cc5nncn5C)COC4)c2)C3=O)CC1 | >=7.5 | >=7.5 | >=0.201 | 1.51 | 1.31 | >=1.001 |
| < 100 | Cn1cnnc1CC1(c2cccc(N3Cc4c(cc(N5CCN6CCC[C@H]6C5)cc4C(F)(F)F)C3=O)c2)COC1 | >=7.5 | >=7.5 | >=0.201 | >=1.76 | >=1.76 | >=1.001 |
| < 100 | Cn1cnnc1C(F)(F)C1(c2cccc(N3Cc4c(cc(CN5CC[C@H](F)C5)cc4C(F)(F)F)C3=O)c2)CC1 | >=7.5 | 5 | >=0.201 | 1.31 | 1.01 | >=1.001 |
| < 100 | Cn1cnnc1CC1(c2cccc(N3Cc4c(cc(CN5CCC(C)(C#N)CC5)cc4C(F)(F)F)C3=O)c2)COC1 | >=7.5 | >=7.5 | 0.151 | 1.31 | 1.31 | >=1.001 |
| < 100 | CCN1CCN(Cc2cc3c(c(C(F)(F)F)c2)CN(c2cccc(C4(Cc5nncn5C)COC4)c2)C3=O)CC1 | >=7.5 | 5 | >=0.201 | 1.31 | 1.31 | >=1.001 |
| < 100 | Cn1cnnc1CC1(c2cccc(N3Cc4c(cc(CN5CCOCC5)cc4C(F)(F)F)C3=O)c2)COC1 | >=7.5 | 2.51 | >=0.201 | 1.31 | 1.31 | >=1.001 |
| < 100 | CO[C@@H]1CCN(Cc2cc3c(c(C(F)(F)F)c2)CN(c2cccc(C4(Cc5nncn5C)COC4)c2)C3=O)C[C@@H]1F (relative stereo) | >=7.5 | >=7.5 | >=0.201 | 1.31 | 1.31 | >=1.001 |

Further lines, the molecule ahead of its results:

| Structure (SMILES) | IC50 [1] [nM] | fold change (FC) [2] | fold change (FC) [3] | fold change (FC) [4] | fold change (FC) [5] | fold change (FC) [6] | fold change (FC) [7] |
| --- | --- | --- | --- | --- | --- | --- | --- |
| Cc1cc(C(=O)Nc2cccc(C3(C(F)(F)c4nncn4C)CC3)c2)nc(C2CC2)n1 | < 100 | 2.51 | 1.01 | 0.101 | 1.01 | 1.01 | 0.601 |
| C[C@H](Cc1nncn1C)c1cc(C2CC2)nc(N2Cc3c(cccc3C(F)(F)F)C2=O)c1 | < 100 | 2.51 | 1.01 | 0.101 | 1.01 | 1.01 | 0.801 |
| Cn1cnnc1CC1(c2cccc(N3Cc4c(cc(N5CC(C(F)(F)F)C5)cc4C(F)(F)F)C3=O)c2)COC1 | < 100 | >=7.5 | 2.51 | 0.051 | 1.01 | 1.01 | >=1.001 |
| C[C@@H](c1cc2c(c(C(F)(F)F)c1)CN(c1cccc(C3(C(F)(F)c4nncn4C)COC3)c1)C2=O)N1CC[C@H](F)C1 | < 100 | >=7.5 | 2.51 | >=0.201 | 1.51 | 1.31 | >=1.001 |
| Cn1cnnc1CC1(c2cccc(N3Cc4c(cc(CN5CCCC5)nc4C4CC4)C3=O)c2)COC1 | < 100 | 2.51 | 1.01 | <=0.05 | 1.01 | 1.01 | <=0.6 |
| CN1CC2CC1CN2c1cc2c(c(C(F)(F)F)c1)CN(c1cccc([C@@](C)(F)C(F)(F)c3nncn3C)c1)C2=O (single isomer, unassigned; 562) | < 100 | >=7.5 | 5 | >=0.201 | 1.51 | 1.51 | >=1.001 |
| Cn1cnnc1[C@@H](F)C1(c2cccc(N3Cc4c(cc(CN5[C@H]6CC[C@H]5CC(F)C6)cc4C(F)(F)F)C3=O)c2)COC1 (stereo partly specified) | < 100 | >=7.5 | 2.51 | >=0.201 | >=1.76 | >=1.76 | 0.801 |
| Cn1cnnc1CC1(c2cccc(N3Cc4c(cc(C(N5CCCC5)C(F)(F)F)cc4C(F)(F)F)C3=O)c2)COC1 (stereo unspecified) | < 100 | 2.51 | 1.01 | 0.051 | 1.31 | 1.01 | 0.801 |
| Cn1cnnc1CC1(c2cccc(N3Cc4c(cc(CN5C6CCC5CC6)cc4C(F)(F)F)C3=O)c2)COC1 | < 100 | >=7.5 | >=7.5 | >=0.201 | 1.51 | 1.51 | >=1.001 |
| Cn1cnnc1CC1(c2cccc(N3Cc4c(ccnc4C(F)(F)F)C3=O)c2)COC1 | < 100 | 1.01 | 1.01 | <=0.05 | 1.01 | 1.01 | 0.601 |
| Cc1cc(C(=O)Nc2cccc(C3(C(F)(F)c4nncn4C)COC3)c2)nc(C2CC2)n1 | < 100 | 5 | 2.51 | 0.101 | 1.31 | 1.01 | 0.801 |
| Cn1cnnc1CC1(c2cccc(N3Cc4c(cc(C(O)c5ccccc5)cc4C(F)(F)F)C3=O)c2)COC1 (stereo unspecified) | < 100 | >=7.5 | 5 | >=0.201 | 1.31 | 1.31 | >=1.001 |
